Experimental data from the supplement of paper PMC11061612.

Key:
Assay in all cases: Bliss excess, mean over the matrix (fraction); higher = more synergy
[1] = test system: NCI-H650 (Lung Adenocarcinoma)
Method in brief: (§1)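 After 24 hours at 37°C and 5% CO2 in 1536-well plates, cells in DMEM/F12 or RPMI plus 10% FBS received two-drug dose matrices for 72 hours. Viability came from CellTiter-Glo 2.0 luminescence and was scaled as inhibition, anchored at 0 by vehicle wells and at 1 by blank wells. Combination Emax is taken as the second-highest inhibition in the matrix, and Bliss excess as the observed combination effect less EA + EB − EA·EB, with EA and EB the single-agent effects.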

[2] = test system: NCI-H1838 (Lung Adenocarcinoma)
Method in brief: as §1

[3] = test system: HCC1500 (Breast Carcinoma)
Method in brief: as §1

[4] = test system: Mo-T (Other Blood Carcinomas)
Method in brief: as §1

[5] = test system: COLO-668 (Small Cell Lung Carcinoma)
Method in brief: as §1

[6] = test system: NCI-H1355 (Lung Adenocarcinoma)
Method in brief: as §1

[7] = test system: NCI-H2122 (Lung Adenocarcinoma)
Method in brief: as §1

[8] = test system: NCI-H522 (Lung Adenocarcinoma)
Method in brief: as §1

[9] = test system: ALL-SIL (T-Lymphoblastic Leukemia)
Method in brief: as §1

[10] = test system: MDA-MB-453 (Breast Carcinoma)
Method in brief: as §1

[11] = test system: SKN (Other Solid Carcinomas)
Method in brief: as §1

[12] = test system: COLO-679 (Melanoma)
Method in brief: as §1

[13] = test system: MOLT-4 (T-Lymphoblastic Leukemia)
Method in brief: as §1

[14] = test system: ME-180 (Cervical Carcinoma)
Method in brief: as §1

[15] = test system: A4-Fuk (B-Lymphoblastic Leukemia)
Method in brief: as §1

[16] = test system: OE33 (Esophageal Adenocarcinoma)
Method in brief: as §1

[17] = test system: ML-2 (Acute Myeloid Leukemia)
Method in brief: as §1

[18] = test system: LC-1-sq (Squamous Cell Lung Carcinoma)
Method in brief: as §1

[19] = test system: SK-N-AS (Neuroblastoma)
Method in brief: as §1

[20] = test system: G-401 (Other Solid Carcinomas)
Method in brief: as §1

SMILES | Bliss excess [1] | Bliss excess [2] | Bliss excess [3] | Bliss excess [4] | Bliss excess [5] | Bliss excess [6] | Bliss excess [7] | Bliss excess [8] | Bliss excess [9] | Bliss excess [10] | Bliss excess [11] | Bliss excess [12] | Bliss excess [13] | Bliss excess [14] | Bliss excess [15] | Bliss excess [16] | Bliss excess [17] | Bliss excess [18] | Bliss excess [19] | Bliss excess [20]
CN(C)CCCOc1ccc(-c2ccc3ncc4c(c3c2)n(C2CCOCC2)c(=O)n4C)cn1 [AZD0156] + C=CCn1c(=O)c2cnc(Nc3ccc(N4CCN(C)CC4)cc3)nc2n1-c1cccc(C(C)(C)O)n1 [AZD1775] (first compound max 1 µM, partner max 1 µM) | -0.0593 | -0.0296 | 0.0408 | -0.0599 | -0.039 | -0.0472 | 0.0551 | -0.0131 | -0.0205 | -0.0736 | -0.0548 | -0.0433 | 0.0118 | -0.0787 | -0.0274 | 0.0402 | -0.014 | -0.0248 | -0.0492 | -0.0734
CN(C)CCCOc1ccc(-c2ccc3ncc4c(c3c2)n(C2CCOCC2)c(=O)n4C)cn1 [AZD0156] + CCN(CCO)CCCOc1ccc2c(Nc3cc(CC(=O)Nc4cccc(F)c4)[nH]n3)ncnc2c1 [AZD2811] (first compound max 1 µM, 7x7, partner max 1 µM) | -0.0159 | -0.0122 | -0.0563 | -0.0898 | -0.0175 | -0.0599 | 0.0471 | -0.0201 | -0.0532 | -0.0208 | -0.0358 | -0.0093 | 0.0107 | -0.0143 | 0.0911 | -0.0173 | -0.0594 | 0.0392 | -0.014 | -0.0279
CN(C)CCCOc1ccc(-c2ccc3ncc4c(c3c2)n(C2CCOCC2)c(=O)n4C)cn1 [AZD0156] + C[C@@H]1COCCN1C2=NC(=NC(=C2)C3(CC3)[S@](=N)(=O)C)C4=C5C=CNC5=NC=C4 [AZD6738] (first compound max 1 µM, 7x7, partner max 10 µM) | -0.011 | -0.0082 | -0.0112 | -0.0382 | -0.017 | -0.0234 | 0.0154 | -0.0258 | -0.0759 | -0.0229 | -0.0069 | 0.0164 | 0.0033 | -0.0468 | -0.0079 | -0.0451 | -0.0248 | -0.0098 | -0.0108 | -0.0017
CN(C)CCCOc1ccc(-c2ccc3ncc4c(c3c2)n(C2CCOCC2)c(=O)n4C)cn1 [AZD0156] + O=C(c1cc(Cc2n[nH]c(=O)c3ccccc23)ccc1F)N1CCN(C(=O)C2CC2)CC1 [Olaparib] (first compound max 3 µM, partner max 3 µM) | -0.014 | -0.0093 | 0.0055 | -0.046 | -0.0077 | 0.0176 | 0.109 | -0.0273 | 0.0281 | -0.0266 | 0.0023 | -0.0013 | 0.123 | 0.0444 | 0.0383 | 0.0228 | 0.117 | -0.0374 | -0.0959 | 0.0269
C=CCn1c(=O)c2cnc(Nc3ccc(N4CCN(C)CC4)cc3)nc2n1-c1cccc(C(C)(C)O)n1 [AZD1775] + C1CN(CCC1(C(=O)N[C@@H](CCO)C2=CC=C(C=C2)Cl)N)C3=NC=NC4=C3C=CN4 [Capivasertib] (first compound max 3 µM, partner max 3 µM) | 0.0136 | -0.0978 | -0.0462 | -0.05 | -0.0726 | 0.0046 | 0.0752 | -0.0028 | -0.0129 | -0.0524 | -0.0375 | -0.0625 | 0.0536 | 0.0063 | -0.0977 | -0.0326 | -0.0148 | -0.128 | -0.0806 | -0.0241
C=CCn1c(=O)c2cnc(Nc3ccc(N4CCN(C)CC4)cc3)nc2n1-c1cccc(C(C)(C)O)n1 [AZD1775] + C[C@@H]1COCCN1C2=NC(=NC(=C2)C3(CC3)[S@](=N)(=O)C)C4=C5C=CNC5=NC=C4 [AZD6738] (first compound max 1 µM, partner max 10 µM) | 0.0062 | -0.0173 | 0.0279 | -0.0271 | 0.0917 | 0.0055 | -0.0303 | 0.0006 | 0.044 | 0.0214 | -0.0185 | -0.0995 | 0.0397 | -0.0022 | -0.0203 | -0.0081 | 0.0095 | 0.0139 | 0.0189 | -0.0293
C=CCn1c(=O)c2cnc(Nc3ccc(N4CCN(C)CC4)cc3)nc2n1-c1cccc(C(C)(C)O)n1 [AZD1775] + O=C(c1cc(Cc2n[nH]c(=O)c3ccccc23)ccc1F)N1CCN(C(=O)C2CC2)CC1 [Olaparib] (first compound max 1 µM, partner max 10 µM) | -0.0532 | -0.0774 | 0.0158 | -0.0418 | 0.0104 | -0.0671 | -0.0522 | 0.0441 | -0.0303 | -0.0441 | -0.0048 | -0.0076 | 0.0101 | -0.0244 | -0.0794 | 0.0117 | 0.0099 | -0.0216 | -0.0075 | -0.0999
CCN(CCO)CCCOc1ccc2c(Nc3cc(CC(=O)Nc4cccc(F)c4)[nH]n3)ncnc2c1 [AZD2811] + C=CCn1c(=O)c2cnc(Nc3ccc(N4CCN(C)CC4)cc3)nc2n1-c1cccc(C(C)(C)O)n1 [AZD1775] (first compound max 1 µM, partner max 1 µM) | 0.0178 | -0.0575 | -0.0098 | -0.0252 | 0.0144 | -0.0067 | 0.0618 | 0.02 | -0.0408 | 0.0236 | -0.0278 | -0.0325 | 0.0151 | -0.0356 | -0.0665 | 0.0006 | -0.102 | 0.0025 | 0.0108 | 0.0421
CCN(CCO)CCCOc1ccc2c(Nc3cc(CC(=O)Nc4cccc(F)c4)[nH]n3)ncnc2c1 [AZD2811] + C[C@@H]1COCCN1C2=NC(=NC(=C2)C3(CC3)[S@](=N)(=O)C)C4=C5C=CNC5=NC=C4 [AZD6738] (first compound max 1 µM, 7x7, partner max 10 µM) | -0.0422 | -0.0107 | -0.007 | -0.0188 | -0.038 | -0.112 | -0.0436 | -0.0123 | -0.0499 | -0.0352 | -0.0432 | -0.103 | -0.0208 | -0.0385 | -0.008 | -0.0167 | -0.0428 | -0.0239 | -0.0365 | -0.0518
CCN(CCO)CCCOc1ccc2c(Nc3cc(CC(=O)Nc4cccc(F)c4)[nH]n3)ncnc2c1 [AZD2811] + O=C(c1cc(Cc2n[nH]c(=O)c3ccccc23)ccc1F)N1CCN(C(=O)C2CC2)CC1 [Olaparib] (first compound max 1 µM, 7x7, partner max 10 µM) | -0.003 | -0.0348 | 0.0231 | -0.027 | -0.0032 | 0.0006 | 0.0155 | 0.0123 | -0.0525 | -0.0253 | -0.0168 | -0.0569 | -0.0029 | -0.0208 | -0.0212 | -0.0094 | -0.0595 | 0.0434 | 0.0255 | 0.0174
Cc1c2c(nn1C)CSCc1cc(n(C)n1)CSc1cc(c3ccccc3c1)OCCCc1c(C(=O)O)n(C)c3c-2c(Cl)ccc13 [AZD5991] + C=CCn1c(=O)c2cnc(Nc3ccc(N4CCN(C)CC4)cc3)nc2n1-c1cccc(C(C)(C)O)n1 [AZD1775] (first compound max 1 µM, partner max 1 µM) | 0.0397 | 0.0159 | 0.0305 | 0.0127 | -0.0643 | 0.0071 | – | -0.0201 | 0.0026 | -0.0091 | -0.0269 | 0.0628 | -0.0043 | -0.0379 | 0.0204 | -0.023 | -0.0342 | -0.0139 | -0.066 | 0.0023
Cc1c2c(nn1C)CSCc1cc(n(C)n1)CSc1cc(c3ccccc3c1)OCCCc1c(C(=O)O)n(C)c3c-2c(Cl)ccc13 [AZD5991] + CCN(CCO)CCCOc1ccc2c(Nc3cc(CC(=O)Nc4cccc(F)c4)[nH]n3)ncnc2c1 [AZD2811] (first compound max 1 µM, 7x7, partner max 1 µM) | 0.0512 | 0.0109 | 0.0466 | -0.0109 | 0.0172 | -0.0466 | 0.0065 | 0.111 | -0.0282 | 0.125 | 0.0261 | 0.0115 | -0.0126 | – | 0.0579 | -0.002 | -0.0122 | 0.0425 | 0.0414 | -0.0061
CS(=O)(=O)CCNCc1ccc(-c2ccc3ncnc(Nc4ccc(OCc5cccc(F)c5)c(Cl)c4)c3c2)o1 [Lapatinib] + NC1(c2ccc(-c3nc4ccn5c(=O)[nH]nc5c4cc3-c3ccccc3)cc2)CCC1 [MK-2206] (first compound max 10 µM, 7x7, partner max 10 µM) | -0.0464 | -0.0422 | 0.0415 | 0.0719 | -0.0393 | 0.0319 | – | -0.0313 | – | 0.0474 | -0.0645 | -0.031 | 0.0866 | 0.0315 | 0.0825 | -0.0133 | 0.0017 | – | -0.0327 | –
CCc1c2c(nc3ccc(O)cc13)-c1cc3c(c(=O)n1C2)COC(=O)[C@]3(O)CC [SN-38] + O=C(c1cc(Cc2n[nH]c(=O)c3ccccc23)ccc1F)N1CCN(C(=O)C2CC2)CC1 [Olaparib] (first compound max 0.3 µM, 7x7, partner max 10 µM) | – | – | 0.051 | 0.0236 | 0.0738 | 0.0271 | – | 0.0909 | 0.0795 | 0.0456 | 0.0246 | 0.005 | 0.0881 | 0.0915 | 0.0164 | 0.0383 | 0.0633 | 0.0716 | 0.096 | –
CC1(C)CCC(CN2CCN(c3ccc(C(=O)NS(=O)(=O)c4ccc(NCC5CCOCC5)c([N+](=O)[O-])c4)c(Oc4cnc5[nH]ccc5c4)c3)CC2)=C(c2ccc(Cl)cc2)C1 [Venetoclax] + CS(=O)(=O)CCNCc1ccc(-c2ccc3ncnc(Nc4ccc(OCc5cccc(F)c5)c(Cl)c4)c3c2)o1 [Lapatinib] (first compound max 1 µM, 7x7, partner max 10 µM) | – | – | – | -0.0092 | 0.0091 | -0.0548 | – | -0.0378 | – | -0.0106 | -0.0497 | -0.0634 | 0.0967 | 0.0153 | -0.0406 | -0.0315 | 0.146 | – | -0.0432 | –
